# ChEMBL document CHEMBL3091402, “Identification of clinical candidates from the benzazepine class of histamine H3 receptor antagonists” (Bioorg Med Chem Lett, 2013)
# The source made the active and inactive calls. The rule behind the calls is not given here.
# Tests used:
# Liver microsome [1] = experiment: Intrinsic clearance in human liver microsomes; format: ADME
# [2] = Time dependent inhibition of CYP450 (unknown origin); format: ADME, Homo sapiens
# hERG (KCNH2) = hERG (KCNH2) (Homo sapiens, UniProt Q12809); experiment: Inhibition of human ERG at 10 uM by patch clamp experiment
# [3] = Aqueous solubility of the compound; format: physicochemical
# Histamine H4 receptor = Histamine H4 receptor (Homo sapiens, UniProt Q9H3N8); experiment: Binding affinity to human histamine H4 receptor
# Histamine H1 receptor = Histamine H1 receptor (Homo sapiens, UniProt P35367); experiment: Binding affinity to human histamine H1 receptor
# Histamine H2 receptor = Histamine H2 receptor (Homo sapiens, UniProt P25021); experiment: Binding affinity to human histamine H2 receptor
# Histamine H3 receptor [4] = target: T1, Histamine H3 receptor (Rattus norvegicus, UniProt Q9QYN8); experiment: Displacement of [3H]-R-alpha-ethylhistamine from rat histamine H3 receptor expressed in HEK293 cells after 45 mins by liquid scintillation spectrometry; format: cell-based
# Liver microsome [5] = experiment: Intrinsic clearance in rat liver microsomes; format: ADME
# Rattus norvegicus [6] = experiment: Reversal of RAMH-induced dipsogenia in po dosed Lister Hooded rat treated 2 hrs before RAMH challenge measured after 1 hr; format: functional
# Rattus norvegicus [7] = experiment: Reversal of RAMH-induced dipsogenia in Lister Hooded rat at 3 mg/kg, po treated 2 hrs before RAMH challenge measured after 1 hr; format: functional
# Blood = experiment: Drug level in rat blood at 3 mg/kg, po; format: ADME, organism-based; design: dose 3 mg/kg, route oral; conditions: in vivo, read-out: Drug uptake
# [8] = Ratio of drug level in brain to blood in rat at 3 mg/kg, po after 1 hr; format: ADME, organism-based; design: dose 3 mg/kg, route oral
# Rattus norvegicus [9] = experiment: Ex vivo binding affinity to histamine H3 receptor in rat cerebral cortex using [3H]-R-alpha-ethylhistamine at 3 mg/kg, po after 3 hrs by HPLC analysis; format: functional
# Rattus norvegicus [10] = experiment: Ex vivo binding affinity to histamine H3 receptor in po dosed rat cerebral cortex using [3H]-R-alpha-ethylhistamine after 2 hrs by HPLC analysis; format: functional
# Histamine H3 receptor [11] = target: T1, Histamine H3 receptor; experiment: Displacement of [3H]-R-alpha-ethylhistamine from histamine H3 receptor in rat cerebral cortical tissue membranes after 45 mins by liquid scintillation spectrometry
# Histamine H3 receptor [12] = target: T2, Histamine H3 receptor (Homo sapiens, UniProt Q9Y5N1); experiment: Antagonist activity at human histamine H3 receptor expressed in CHOK1 cells assessed as inhibition of GTPgammaS binding; format: functional, cell-based, CHO-K1
# Rattus norvegicus [13] = experiment: Cognitive enhancing effect in Lister Hooded rat assessed as increase of time spent exploring novel versus familiar objects in T2 at 0.3 to 1 mg/kg, po bid; format: functional, organism-based
# Rattus norvegicus [14] = experiment: Cognitive enhancing effect against scopolamine-induced memory deficit in Wistar rat assessed as passive avoidance response at 3 mg/kg, po after 24 hrs; format: functional, organism-based; design: dose 3 mg/kg
# Rattus norvegicus [15] = experiment: Cognitive enhancing effect against scopolamine-induced memory deficit in po dosed Wistar rat assessed as passive avoidance response after 24 hrs; format: functional, organism-based
# [16] = Oral bioavailability in cynomolgus monkey; format: ADME, organism-based, Macaca fascicularis; conditions: in vivo
# [17] = Terminal half life in po dosed cynomolgus monkey; format: ADME, organism-based, Macaca fascicularis; conditions: in vivo, read-out: beta t1/2 (converted)
# [18] = Tmax in po dosed cynomolgus monkey; format: ADME, organism-based, Macaca fascicularis; conditions: in vivo
# Rattus norvegicus [19] = organism: Rattus norvegicus; experiment: Ex vivo receptor occupancy of histamine H3 receptor in rat brain; format: functional, organism-based
# [20] = Cmax in po dosed cynomolgus monkey; format: ADME, organism-based, Macaca fascicularis; design: route oral; conditions: in vivo
# [21] = Terminal half life in iv dosed cynomolgus monkey; format: ADME, organism-based, Macaca fascicularis; conditions: in vivo, read-out: beta t1/2 (converted)
# [22] = Cmax in iv dosed cynomolgus monkey; format: ADME, organism-based, Macaca fascicularis; design: route intravenous; conditions: in vivo
# [23] = Volume of distribution at steady-state in iv dosed cynomolgus monkey; format: ADME, organism-based, Macaca fascicularis; conditions: in vivo, read-out: Vdss
# [24] = Total blood clearance in iv dosed cynomolgus monkey; format: ADME, organism-based, Macaca fascicularis; conditions: whole blood
# [25] = Oral bioavailability in Beagle dog; format: ADME, organism-based, Canis lupus familiaris; conditions: in vivo
# [26] = Terminal half life in po dosed Beagle dog; format: ADME, organism-based, Canis lupus familiaris; conditions: in vivo, read-out: beta t1/2 (converted)
# [27] = Tmax in po dosed Beagle dog; format: ADME, organism-based, Canis lupus familiaris; conditions: in vivo
# [28] = Ratio of drug level in brain to blood in human; format: ADME, tissue-based
# [29] = Cmax in po dosed Beagle dog; format: ADME, organism-based, Canis lupus familiaris; design: route oral; conditions: in vivo
# [30] = Cmax in iv dosed Beagle dog; format: ADME, organism-based, Canis lupus familiaris; design: route intravenous; conditions: in vivo
# [31] = Terminal half life in iv dosed Beagle dog; format: ADME, organism-based, Canis lupus familiaris; conditions: in vivo, read-out: beta t1/2 (converted)
# [32] = Volume of distribution at steady-state in iv dosed Beagle dog; format: ADME, organism-based, Canis lupus familiaris; conditions: in vivo, read-out: Vdss
# [33] = Total blood clearance in iv dosed Beagle dog; format: ADME, organism-based, Canis lupus familiaris; conditions: whole blood
# [34] = Oral bioavailability in Sprague-Dawley rat; format: ADME, organism-based; conditions: in vivo
# [35] = Tmax in po dosed Sprague-Dawley rat; format: ADME, organism-based; conditions: in vivo
# [36] = Terminal half life in po dosed Sprague-Dawley rat; format: ADME, organism-based; conditions: in vivo, read-out: beta t1/2 (converted)
# [37] = Cmax in po dosed Sprague-Dawley rat; format: ADME, organism-based; design: route oral; conditions: in vivo
# [38] = Ratio of drug level in brain to blood in iv dosed Sprague-Dawley rat; format: ADME, organism-based
# [39] = Terminal half life in iv dosed Sprague-Dawley rat; format: ADME, organism-based; conditions: in vivo, read-out: beta t1/2 (converted)
# [40] = Cmax in iv dosed Sprague-Dawley rat; format: ADME, organism-based; design: route intravenous; conditions: in vivo
# [41] = Volume of distribution at steady-state in iv dosed Sprague-Dawley rat; format: ADME, organism-based; conditions: in vivo, read-out: Vdss
# [42] = Total blood clearance in iv dosed Sprague-Dawley rat; format: ADME, organism-based; conditions: whole blood
# Histamine H3 receptor [43] = target: T2, Histamine H3 receptor; experiment: Displacement of [3H]-R-alpha-ethylhistamine from human histamine H3 receptor expressed in HEK293 cells after 45 mins by liquid scintillation spectrometry
# Histamine H3 receptor [44] = target: T2, Histamine H3 receptor; experiment: Displacement of [3H]-R-alpha-ethylhistamine from histamine H3 receptor in human cerebral cortical tissue membranes after 45 mins by liquid scintillation spectrometry
# [45] = Ratio of drug level in brain to blood in rat at 3 mg/kg, po; format: ADME, organism-based; design: dose 3 mg/kg, route oral
# T1 sequence (Q9QYN8 whole entry): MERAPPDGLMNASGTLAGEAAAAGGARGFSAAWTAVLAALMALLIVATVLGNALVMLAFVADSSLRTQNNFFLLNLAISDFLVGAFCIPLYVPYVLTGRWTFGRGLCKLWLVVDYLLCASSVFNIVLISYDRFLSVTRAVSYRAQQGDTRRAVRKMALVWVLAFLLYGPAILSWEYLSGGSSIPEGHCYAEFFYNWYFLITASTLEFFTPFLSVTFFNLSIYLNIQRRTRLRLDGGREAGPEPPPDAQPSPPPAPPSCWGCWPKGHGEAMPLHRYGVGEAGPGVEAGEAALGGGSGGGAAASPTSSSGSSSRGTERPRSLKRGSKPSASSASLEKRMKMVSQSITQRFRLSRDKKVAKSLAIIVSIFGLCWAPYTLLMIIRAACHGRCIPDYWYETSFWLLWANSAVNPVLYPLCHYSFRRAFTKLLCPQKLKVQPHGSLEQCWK
# T2 sequence (Q9Y5N1 whole entry): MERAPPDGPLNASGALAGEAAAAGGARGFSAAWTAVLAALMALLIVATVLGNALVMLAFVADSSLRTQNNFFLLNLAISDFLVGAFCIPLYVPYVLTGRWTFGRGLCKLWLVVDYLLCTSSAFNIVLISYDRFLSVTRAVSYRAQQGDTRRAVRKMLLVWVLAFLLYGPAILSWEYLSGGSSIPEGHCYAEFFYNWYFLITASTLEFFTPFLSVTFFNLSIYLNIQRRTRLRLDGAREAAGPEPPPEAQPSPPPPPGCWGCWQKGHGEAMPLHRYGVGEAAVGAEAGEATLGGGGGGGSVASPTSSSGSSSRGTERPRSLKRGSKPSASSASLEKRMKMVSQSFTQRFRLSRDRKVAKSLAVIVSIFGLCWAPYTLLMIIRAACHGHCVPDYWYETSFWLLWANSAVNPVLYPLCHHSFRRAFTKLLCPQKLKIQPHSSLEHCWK
# Sequence of Histamine H2 receptor (P25021 whole entry): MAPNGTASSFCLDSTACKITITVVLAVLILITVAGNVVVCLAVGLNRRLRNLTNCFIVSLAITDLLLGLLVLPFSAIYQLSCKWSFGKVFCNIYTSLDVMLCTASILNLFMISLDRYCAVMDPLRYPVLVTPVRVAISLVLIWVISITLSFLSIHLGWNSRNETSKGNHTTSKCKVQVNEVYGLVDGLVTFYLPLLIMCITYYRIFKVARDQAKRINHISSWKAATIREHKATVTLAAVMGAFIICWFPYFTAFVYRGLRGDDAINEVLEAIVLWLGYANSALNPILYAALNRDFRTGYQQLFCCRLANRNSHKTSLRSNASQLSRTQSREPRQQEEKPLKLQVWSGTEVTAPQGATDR
# Sequence of Histamine H4 receptor (Q9H3N8 whole entry): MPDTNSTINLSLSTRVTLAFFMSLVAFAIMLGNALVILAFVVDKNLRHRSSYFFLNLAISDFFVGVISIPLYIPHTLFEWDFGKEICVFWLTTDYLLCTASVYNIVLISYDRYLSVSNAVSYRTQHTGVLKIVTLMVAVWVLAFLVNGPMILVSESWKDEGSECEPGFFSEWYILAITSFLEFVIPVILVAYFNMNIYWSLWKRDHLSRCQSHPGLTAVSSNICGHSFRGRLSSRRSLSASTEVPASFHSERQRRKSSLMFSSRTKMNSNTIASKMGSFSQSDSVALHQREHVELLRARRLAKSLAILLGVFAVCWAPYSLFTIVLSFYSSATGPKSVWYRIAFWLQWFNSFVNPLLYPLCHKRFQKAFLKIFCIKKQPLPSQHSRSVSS
# Sequence of Histamine H1 receptor (P35367 whole entry): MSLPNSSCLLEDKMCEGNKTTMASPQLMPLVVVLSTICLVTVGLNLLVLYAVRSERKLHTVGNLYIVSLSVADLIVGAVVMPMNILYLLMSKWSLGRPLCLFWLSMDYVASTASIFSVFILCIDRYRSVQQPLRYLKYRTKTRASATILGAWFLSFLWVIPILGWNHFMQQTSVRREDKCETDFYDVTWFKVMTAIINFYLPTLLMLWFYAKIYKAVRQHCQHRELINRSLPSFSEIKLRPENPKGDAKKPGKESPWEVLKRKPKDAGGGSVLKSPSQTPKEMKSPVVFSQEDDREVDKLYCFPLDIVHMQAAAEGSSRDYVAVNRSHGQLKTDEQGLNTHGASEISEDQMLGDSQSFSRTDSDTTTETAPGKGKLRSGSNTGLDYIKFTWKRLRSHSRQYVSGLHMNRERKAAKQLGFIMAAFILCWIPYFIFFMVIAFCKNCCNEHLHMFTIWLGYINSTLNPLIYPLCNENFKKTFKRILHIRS
# Sequence of hERG (KCNH2) (Q12809 whole entry): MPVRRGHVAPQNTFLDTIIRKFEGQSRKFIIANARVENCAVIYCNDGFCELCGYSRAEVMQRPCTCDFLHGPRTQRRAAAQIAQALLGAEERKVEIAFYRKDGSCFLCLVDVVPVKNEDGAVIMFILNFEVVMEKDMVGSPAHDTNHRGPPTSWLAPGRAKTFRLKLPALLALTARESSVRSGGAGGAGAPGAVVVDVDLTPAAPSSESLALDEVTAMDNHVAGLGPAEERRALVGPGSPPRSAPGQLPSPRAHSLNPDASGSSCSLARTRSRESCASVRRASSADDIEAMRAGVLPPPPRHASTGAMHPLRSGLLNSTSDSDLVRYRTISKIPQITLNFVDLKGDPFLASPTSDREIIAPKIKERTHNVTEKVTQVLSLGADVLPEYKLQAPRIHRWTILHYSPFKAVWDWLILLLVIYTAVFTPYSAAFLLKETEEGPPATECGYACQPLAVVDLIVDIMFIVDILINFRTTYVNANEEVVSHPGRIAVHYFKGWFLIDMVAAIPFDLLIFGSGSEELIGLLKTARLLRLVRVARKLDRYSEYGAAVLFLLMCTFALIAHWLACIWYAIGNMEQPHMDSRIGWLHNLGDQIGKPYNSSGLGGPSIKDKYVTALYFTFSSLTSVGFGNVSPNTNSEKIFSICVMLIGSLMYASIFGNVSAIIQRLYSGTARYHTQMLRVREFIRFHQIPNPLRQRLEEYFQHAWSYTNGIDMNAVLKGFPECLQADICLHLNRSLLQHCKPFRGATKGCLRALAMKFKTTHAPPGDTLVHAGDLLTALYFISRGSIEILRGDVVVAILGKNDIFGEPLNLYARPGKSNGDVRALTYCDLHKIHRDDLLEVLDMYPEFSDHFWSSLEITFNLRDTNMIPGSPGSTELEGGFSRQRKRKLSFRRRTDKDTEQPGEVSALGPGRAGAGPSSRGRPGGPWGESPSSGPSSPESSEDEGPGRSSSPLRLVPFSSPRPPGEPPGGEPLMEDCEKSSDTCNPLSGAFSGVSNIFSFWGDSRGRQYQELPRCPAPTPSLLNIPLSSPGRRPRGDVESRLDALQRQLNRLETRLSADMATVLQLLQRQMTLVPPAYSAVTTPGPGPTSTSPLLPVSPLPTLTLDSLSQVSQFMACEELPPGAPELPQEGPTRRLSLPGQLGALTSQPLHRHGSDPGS
structure (smiles),measurement,setting,value
CNC(=O)c1ccc(Oc2ccc3c(c2)CCN(C2CCC2)CC3)nc1 [GSK189254],CLH,Liver microsome [1],0.5 mL/min/g
same,IC50,[2],> 10000 nM
same,inhibition at 10 µM,hERG (KCNH2),36%
same,solubility,[3],> 10000 µg/mL
same,Ki,Histamine H4 receptor,> 3160 nM
same,Ki,Histamine H1 receptor,> 2510 nM
same,Ki,Histamine H2 receptor,> 3160 nM
same,Ki,Histamine H3 receptor [4],0.676 nM
same,CLH,Liver microsome [5],0.5 mL/min/g
same,ED50,Rattus norvegicus [6],0.05 mg/kg
same,Activity,Rattus norvegicus [7],100%
same,concentration,Blood,880 nM
same,Kp at 1 h,[8],1.3
same,Activity,Rattus norvegicus [9],100%
same,ED50,Rattus norvegicus [10],0.17 mg/kg
same,Ki,Histamine H3 receptor [11],2.63 nM
same,Ki,Histamine H3 receptor [12],0.2 nM
O=C1CCCN1c1ccc(Oc2ccc3c(c2)CCN(C2CCC2)CC3)nc1 [GSK239512],Activity,Rattus norvegicus [13],Active
same,Activity,Rattus norvegicus [14],Active
same,Activity,Rattus norvegicus [15],Dose-dependent effect
same,bioavailability,[16],55%
same,half-life,[17],1.7 h
same,Tmax,[18],1.3 h
same,EC50,Rattus norvegicus [19],15 nM
same,Cmax,[20],145 nM
same,half-life,[21],1.7 h
same,Cmax,[22],383 nM
same,Vd,[23],3.2 L/kg
same,clearance,[24],28 mL/min/kg
same,bioavailability,[25],33%
same,half-life,[26],1.8 h
same,Tmax,[27],0.7 h
same,Kp,[28],1.83
same,Cmax,[29],120 nM
same,Cmax,[30],393 nM
same,half-life,[31],1.7 h
same,Vd,[32],2.8 L/kg
same,clearance,[33],22 mL/min/kg
same,bioavailability,[34],51%
same,Tmax,[35],1 h
same,half-life,[36],2.1 h
same,Cmax,[37],348 nM
same,Kp,[38],1.83
same,half-life,[39],1.2 h
same,Cmax,[40],671 nM
same,Vd,[41],3.1 L/kg
same,clearance,[42],39 mL/min/kg
same,CLH,Liver microsome [1],0.6 mL/min/g
same,IC50,[2],> 10000 nM
same,inhibition at 10 µM,hERG (KCNH2),< 10%
same,solubility,[3],> 10000 µg/mL
same,Ki,Histamine H4 receptor,> 3160 nM
same,Ki,Histamine H1 receptor,2510 nM
same,Ki,Histamine H2 receptor,> 3160 nM
same,Ki,Histamine H3 receptor [4],0.148 nM
same,Ki,Histamine H3 receptor [43],0.204 nM
same,CLH,Liver microsome [5],1.6 mL/min/g
same,Ki,Histamine H3 receptor [44],0.12 nM
same,ED50,Rattus norvegicus [6],0.04 mg/kg
same,Kp,[45],1
same,concentration,Blood,410 nM
same,Activity,Rattus norvegicus [9],95%
same,ED50,Rattus norvegicus [10],0.08 mg/kg
same,Ki,Histamine H3 receptor [11],0.363 nM
same,Ki,Histamine H3 receptor [12],0.1 nM
